Experimental data as given in patent US20250214991A1 (Oncopia Therapeutics, Inc. d/b/a/ SK Life Science Labs, priority 2022, published 2025).

Tests used:
CRBN/DDB1 = CRBN/DDB1 (Homo sapiens (Human), UniProt Q96SW2); assay: IC50 measurements for binding to CRBN/DDB1 (HTRF); details: His tagged CRBN+DDB, Cy5-labeled Thalidomide probe, one hour
Procedure: In vitro Assay: IC50 Measurements for binding to CRBN/DDB1 (Table E1)
The binding potency was determined using HTRF assay technology (Perkin Elmer). Compounds were serially diluted in DMSO and 0.2 μL volume was transferred to white 384-well plate. The reaction was conducted in total volume of 20 μL with addition of 2 nM His tagged CRBN+DDB−DLS7+CXU4 (Wuxi, catalogue #RP210521GA) to compounds followed by addition of 60 nM Fluorescent probe Cy5-labeled Thalidomide (Tenova Pharma, catalogue #T52461), and 0.4 nM of MAb Anti-6HIS Tb cryptate Gold (Cisbio, catalogue #61HI2TLA in the assay buffer (50 mM HEPES pH 7.5, 1 mM TCEP, 0.01% Brij-35, 50 mM NaCl, and 0.1% BSA). After one hour incubation at room temperature, the HTRF signals were read on Envision reader (Perkin Elemer). Data was analyzed using XLfit using four parameters dose response curve to determine IC50s. A: IC50<0.1 μM; B: 0.1 μM<IC50<[…]; C: 0.5 μM<IC50<1 μM; D: 1 μM<IC50<5 μM; E: 5 μM<IC50<10 μM

IKZF1 = IKZF1 (Homo sapiens (Human), UniProt Q13422+Q96SW2); assay: In vitro IKZF1 HiBit Assay (HEK293T Flp-in-HiBiT-IKZF1 stable cell line); assay type: cell-based; details: HEK293T Flp-in-HiBiT-IKZF1 stable cell line, 6 hrs incubation; for DC50: read-out: IKZF1 HiBit DC50; for Dmax: HEK-293T, read-out: IKZF1 HiBit Dmax (%)
Outline: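 Degradation was measured as loss of luminescence from the HiBiT-IKZF1 tag after 6 h compound treatment, with 0.1% final DMSO, in stable HEK293T Flp-in cells. Values were normalized to DMSO, giving the 50% degradation concentration and the maximal degradation range.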

IKZF2 = IKZF2 (Homo sapiens (Human), UniProt Q96SW2+Q9UKS7); assay: In vitro IKZF2 HiBit Assay (HEK293T Flp-in-HiBiT cells); assay type: cell-based; details: HEK293T Flp-in-HiBiT cells, 6 hrs incubation; for DC50: read-out: IKZF2 HiBit DC50; for Dmax: HEK-293T, read-out: IKZF2 HiBit Dmax (%)
Outline: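 Remaining tagged Helios was read as lytic HiBiT/LgBiT luminescence normalized to DMSO, yielding binned DC50 and Dmax values. Treatment ran 6 h, with compounds at 11 three-fold doses diluted from 1 mM and 0.1% final DMSO. The cells were HEK293T Flp-in with CRISPR knock-in of HiBiT at the IKZF2 N-terminus.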

CRBN/DDB1, sequence (Q96SW2 whole entry, species assumed): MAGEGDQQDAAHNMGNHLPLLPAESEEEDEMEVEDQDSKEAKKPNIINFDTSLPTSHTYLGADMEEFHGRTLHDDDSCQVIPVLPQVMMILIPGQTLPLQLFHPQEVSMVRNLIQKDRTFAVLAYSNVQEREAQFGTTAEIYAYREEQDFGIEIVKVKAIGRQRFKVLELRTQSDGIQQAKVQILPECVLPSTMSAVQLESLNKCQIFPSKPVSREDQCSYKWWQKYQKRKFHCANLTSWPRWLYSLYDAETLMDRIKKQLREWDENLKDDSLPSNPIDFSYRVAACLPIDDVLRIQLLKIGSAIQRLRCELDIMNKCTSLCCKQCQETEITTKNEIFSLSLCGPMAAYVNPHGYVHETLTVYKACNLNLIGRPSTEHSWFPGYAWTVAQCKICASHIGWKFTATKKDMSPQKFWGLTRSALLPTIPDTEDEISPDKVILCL
CRBN/DDB1, sequence (Q16531 whole entry partner, species assumed): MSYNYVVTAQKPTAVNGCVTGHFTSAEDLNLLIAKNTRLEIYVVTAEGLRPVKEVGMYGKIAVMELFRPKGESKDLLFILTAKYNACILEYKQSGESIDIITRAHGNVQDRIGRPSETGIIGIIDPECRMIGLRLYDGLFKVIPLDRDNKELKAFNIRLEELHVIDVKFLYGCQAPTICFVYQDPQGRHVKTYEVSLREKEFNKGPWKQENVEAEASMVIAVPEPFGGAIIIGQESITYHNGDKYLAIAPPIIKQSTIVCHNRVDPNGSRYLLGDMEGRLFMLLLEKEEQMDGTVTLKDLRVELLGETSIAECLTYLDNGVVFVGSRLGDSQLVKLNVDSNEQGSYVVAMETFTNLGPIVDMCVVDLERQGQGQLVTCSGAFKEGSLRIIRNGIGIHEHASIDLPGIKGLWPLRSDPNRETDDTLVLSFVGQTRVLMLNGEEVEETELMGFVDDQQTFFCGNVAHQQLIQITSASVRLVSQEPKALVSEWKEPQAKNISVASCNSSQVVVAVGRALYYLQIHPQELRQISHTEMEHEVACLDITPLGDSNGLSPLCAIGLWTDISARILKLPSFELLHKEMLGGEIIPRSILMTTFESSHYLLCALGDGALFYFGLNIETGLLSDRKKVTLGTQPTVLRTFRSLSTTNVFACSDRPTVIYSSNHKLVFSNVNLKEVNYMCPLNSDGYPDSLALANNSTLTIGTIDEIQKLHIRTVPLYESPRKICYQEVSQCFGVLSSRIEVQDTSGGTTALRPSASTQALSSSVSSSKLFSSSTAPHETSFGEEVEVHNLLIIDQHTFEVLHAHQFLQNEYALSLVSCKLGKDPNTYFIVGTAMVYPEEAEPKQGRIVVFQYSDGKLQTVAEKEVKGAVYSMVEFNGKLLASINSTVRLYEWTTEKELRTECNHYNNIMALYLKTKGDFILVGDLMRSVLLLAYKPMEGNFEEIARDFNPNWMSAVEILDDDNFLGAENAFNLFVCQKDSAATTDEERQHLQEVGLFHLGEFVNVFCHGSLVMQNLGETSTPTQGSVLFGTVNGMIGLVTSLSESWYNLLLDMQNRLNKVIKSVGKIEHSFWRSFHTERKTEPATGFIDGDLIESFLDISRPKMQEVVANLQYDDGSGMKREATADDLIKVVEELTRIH
IKZF1, sequence (Q13422 whole entry): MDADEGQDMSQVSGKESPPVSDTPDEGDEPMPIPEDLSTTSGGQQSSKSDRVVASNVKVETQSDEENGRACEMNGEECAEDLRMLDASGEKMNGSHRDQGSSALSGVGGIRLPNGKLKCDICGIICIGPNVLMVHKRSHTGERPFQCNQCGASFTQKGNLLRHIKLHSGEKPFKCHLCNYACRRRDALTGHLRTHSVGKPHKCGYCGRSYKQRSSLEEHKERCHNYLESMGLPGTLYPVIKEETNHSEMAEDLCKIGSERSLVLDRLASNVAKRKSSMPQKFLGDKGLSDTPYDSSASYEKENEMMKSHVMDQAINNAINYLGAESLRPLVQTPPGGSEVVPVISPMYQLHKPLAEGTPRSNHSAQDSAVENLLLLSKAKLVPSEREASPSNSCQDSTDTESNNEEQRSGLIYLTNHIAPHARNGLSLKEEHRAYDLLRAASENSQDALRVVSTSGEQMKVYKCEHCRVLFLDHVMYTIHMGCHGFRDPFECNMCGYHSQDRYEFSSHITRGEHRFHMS
IKZF1, sequence (Q96SW2 whole entry): as the sequence (Q96SW2 whole entry, species assumed) above
IKZF1, sequence (Q16531 2-1140 partner): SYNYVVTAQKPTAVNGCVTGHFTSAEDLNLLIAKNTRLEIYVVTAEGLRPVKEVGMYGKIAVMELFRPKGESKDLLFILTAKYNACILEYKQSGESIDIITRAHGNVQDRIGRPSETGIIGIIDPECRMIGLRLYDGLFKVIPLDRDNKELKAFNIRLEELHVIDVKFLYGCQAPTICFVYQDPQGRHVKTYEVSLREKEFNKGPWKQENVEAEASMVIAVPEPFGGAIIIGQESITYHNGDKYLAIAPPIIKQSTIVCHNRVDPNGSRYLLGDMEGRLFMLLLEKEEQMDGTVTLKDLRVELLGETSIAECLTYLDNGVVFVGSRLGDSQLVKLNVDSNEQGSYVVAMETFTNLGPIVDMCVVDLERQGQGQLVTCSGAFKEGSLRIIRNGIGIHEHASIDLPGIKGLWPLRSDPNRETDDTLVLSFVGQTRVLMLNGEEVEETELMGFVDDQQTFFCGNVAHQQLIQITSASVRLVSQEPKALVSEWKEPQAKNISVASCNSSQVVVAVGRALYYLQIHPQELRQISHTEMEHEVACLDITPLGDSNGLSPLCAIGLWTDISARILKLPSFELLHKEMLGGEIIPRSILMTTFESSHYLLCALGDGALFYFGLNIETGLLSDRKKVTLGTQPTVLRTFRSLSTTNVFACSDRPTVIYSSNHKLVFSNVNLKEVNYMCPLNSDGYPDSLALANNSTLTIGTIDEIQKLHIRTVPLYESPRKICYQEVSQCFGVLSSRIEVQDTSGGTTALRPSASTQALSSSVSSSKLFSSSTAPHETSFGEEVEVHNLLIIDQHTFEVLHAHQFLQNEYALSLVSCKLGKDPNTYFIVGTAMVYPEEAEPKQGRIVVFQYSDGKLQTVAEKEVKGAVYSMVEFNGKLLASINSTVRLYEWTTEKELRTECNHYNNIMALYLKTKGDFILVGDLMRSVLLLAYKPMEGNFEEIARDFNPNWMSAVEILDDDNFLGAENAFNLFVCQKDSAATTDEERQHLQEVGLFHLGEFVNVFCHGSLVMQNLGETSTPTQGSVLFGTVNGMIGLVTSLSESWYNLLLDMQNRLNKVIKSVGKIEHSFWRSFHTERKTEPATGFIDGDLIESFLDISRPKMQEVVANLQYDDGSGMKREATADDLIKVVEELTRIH
IKZF2, sequence (Q9UKS7 whole entry): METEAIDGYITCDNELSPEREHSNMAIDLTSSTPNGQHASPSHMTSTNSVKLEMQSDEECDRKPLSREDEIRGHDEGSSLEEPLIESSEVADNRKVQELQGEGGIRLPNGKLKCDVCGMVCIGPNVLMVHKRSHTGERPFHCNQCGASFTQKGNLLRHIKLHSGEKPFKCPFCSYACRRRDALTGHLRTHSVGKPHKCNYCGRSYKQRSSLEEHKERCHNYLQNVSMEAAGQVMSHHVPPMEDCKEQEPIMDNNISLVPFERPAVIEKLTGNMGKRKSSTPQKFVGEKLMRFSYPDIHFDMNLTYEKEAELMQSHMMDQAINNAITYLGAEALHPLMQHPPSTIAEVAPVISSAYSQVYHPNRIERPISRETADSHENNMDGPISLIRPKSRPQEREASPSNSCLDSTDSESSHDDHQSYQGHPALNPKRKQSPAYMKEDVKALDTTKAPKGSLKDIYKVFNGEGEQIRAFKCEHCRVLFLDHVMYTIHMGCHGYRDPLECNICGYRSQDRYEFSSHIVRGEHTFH
IKZF2, sequence (Q96SW2 whole entry): as the sequence (Q96SW2 whole entry, species assumed) above
IKZF2, sequence (Q16531 2-1140 partner): as the sequence (Q16531 2-1140 partner) above

SMILES | IC50 (CRBN/DDB1) [nM] | DC50 (IKZF1) [nM] | Dmax (IKZF1) [%] | DC50 (IKZF2) [nM] | Dmax (IKZF2) [%]
Cn1ccc2c(CN3CCC3c3ccccc3)cc(-c3ccc4c(c3)CN(C3CCC(=O)NC3=O)C4=O)nc21 (stereo not drawn) [Example 71, 3-(5-(1-methyl-4-((2-phenylazetidin-1-yl)methyl)-1H-pyrrolo[2,3-b]pyridin-6-yl)-1-oxoisoindolin-2-yl) piperidine-2,6-dione] | 100 to 500 | > 10000 | 20 to 40 | 1 to 10 | > 80
Cn1ccc2c(CN3CC4CCCC4C3)cc(-c3ccc4c(c3)CN(C3CCC(=O)NC3=O)C4=O)nc21 (stereo not drawn) [Example 72, 3-(5-(4-((hexahydrocyclopenta[c]pyrrol-2 (1H)-yl)methyl)-1-methyl-1H-pyrrolo[2,3-b]pyridin-6-yl)-1-oxoisoindolin-2-yl) piperidine-2,6-dione] | 100 to 500 | > 10000 | 40 to 60 | < 1 | > 80
Cn1ccc2c(CN3CCC4(CC3)COC4)cc(-c3ccc4c(c3)CN(C3CCC(=O)NC3=O)C4=O)nc21 (stereo not drawn) [Example 73, 3-(5-(4-((2-oxa-7-azaspiro[3.5]nonan-7-yl)methyl)-1-methyl-1H-pyrrolo[2,3-b]pyridin-6-yl)-1-oxoisoindolin-2-yl) piperidine-2,6-dione] | 100 to 500 | > 10000 | 20 to 40 | 1 to 10 | > 80
CCn1ccc2c(CN3CCCC3)cc(-c3ccc4c(c3)CN(C3CCC(=O)NC3=O)C4=O)nc21 (stereo not drawn) [Example 74, 3-(5-(1-ethyl-4-(pyrrolidin-1-ylmethyl)-1H-pyrrolo[2,3-b]pyridin-6-yl)-1-oxoisoindolin-2-yl) piperidine-2,6-dione] | 500 to 1000 | > 10000 | < 20 | 1 to 10 | > 80
Cn1ccc2c(CN3CCCC3)cc(-c3ccc4c(c3F)CN(C3CCC(=O)NC3=O)C4=O)nc21 (stereo not drawn) [Example 75, 3-(4-fluoro-5-(1-methyl-4-(pyrrolidin-1-ylmethyl)-1H-pyrrolo[2,3-b]pyridin-6-yl)-1-oxoisoindolin-2-yl) piperidine-2,6-dione] | 100 to 500 | > 10000 | 20 to 40 | < 1 | > 80
O=C1CCC(N2Cc3cc(-c4cc(CN5CCCC5)c5[nH]ccc5n4)ccc3C2=O)C(=O)N1 (stereo not drawn) [Example 76, 3-(1-oxo-5-(7-(pyrrolidin-1-ylmethyl)-1H-pyrrolo[3,2-b]pyridin-5-yl)isoindolin-2-yl) piperidine-2,6-dione] | 1000 to 5000 | > 10000 | 20 to 40 | < 1 | > 80
Cn1ccc2nc(-c3ccc4c(c3)CN(C3CCC(=O)NC3=O)C4=O)cc(CN3CCCC3)c21 (stereo not drawn) [Example 77, 3-(5-(1-methyl-7-(pyrrolidin-1-ylmethyl)-1H-pyrrolo[3,2-b]pyridin-5-yl)-1-oxoisoindolin-2-yl) piperidine-2,6-dione] | 1000 to 5000 | > 10000 | 20 to 40 | < 1 | > 80
O=C1CCC(N2Cc3cc(-c4cc(CN5CCCC5)c5ccccc5n4)ccc3C2=O)C(=O)N1 (stereo not drawn) [Example 78, 3-(1-oxo-5-(4-(pyrrolidin-1-ylmethyl)quinolin-2-yl)isoindolin-2-yl) piperidine-2,6-dione] | 500 to 1000 | > 10000 | 20 to 40 | < 1 | > 80
O=C1CCC(N2Cc3cc(-c4cc(CN5CCCC5)c5c(n4)CCCC5)ccc3C2=O)C(=O)N1 (stereo not drawn) [Example 79, 3-(1-oxo-5-(4-(pyrrolidin-1-ylmethyl)-5,6,7,8-tetrahydroquinolin-2-yl)isoindolin-2-yl) piperidine-2,6-dione] | 100 to 500 | > 10000 | 20 to 40 | < 1 | > 80
O=C1CCC(N2Cc3cc(-c4cc(CN5CCCC5)c5c(n4)CCC5)ccc3C2=O)C(=O)N1 (stereo not drawn) [Example 80, 3-(1-oxo-5-(4-(pyrrolidin-1-ylmethyl)-6,7-dihydro-5H-cyclopenta[b]pyridin-2-yl)isoindolin-2-yl) piperidine-2,6-dione] | 100 to 500 |  | 20 to 40 | < 1 | > 80
CC1CCN(Cc2cc(-c3ccc4c(c3)CN(C3CCC(=O)NC3=O)C4=O)nc3c2ccn3C)CC1 (stereo not drawn) [Example 81, 3-(5-(1-methyl-4-((4-methylpiperidin-1-yl)methyl)-1H-pyrrolo[2,3-b]pyridin-6-yl)-1-oxoisoindolin-2-yl) piperidine-2,6-dione] | 5000 to 10000 | 10 to 100 | 40 to 60 | < 1 | > 80
Cn1ccc2c(CN3CCCC3)cc(-c3cc4c(cc3F)C(=O)N(C3CCC(=O)NC3=O)C4)nc21 (stereo not drawn) [Example 82, 3-(6-fluoro-5-(1-methyl-4-(pyrrolidin-1-ylmethyl)-1H-pyrrolo[2,3-b]pyridin-6-yl)-1-oxoisoindolin-2-yl) piperidine-2,6-dione] | 5000 to 10000 | > 10000 | < 20 | 100 to 1000 | 20 to 40
Cn1ccc2c(CN3CCCC3)cc(-c3cc4c(cc3Cl)C(=O)N(C3CCC(=O)NC3=O)C4)nc21 (stereo not drawn) [Example 83, 3-(6-chloro-5-(1-methyl-4-(pyrrolidin-1-ylmethyl)-1H-pyrrolo[2,3-b]pyridin-6-yl)-1-oxoisoindolin-2-yl) piperidine-2,6-dione] | 1000 to 5000 | > 10000 | < 20 | 1 to 10 | > 80
O=C1CCC(N2Cc3cc(-c4cc(CN5CCC5)c5cc[nH]c5n4)ccc3C2=O)C(=O)N1 (stereo not drawn) [Example 84, 3-(5-(4-(azetidin-1-ylmethyl)-1H-pyrrolo[2,3-b]pyridin-6-yl)-1-oxoisoindolin-2-yl) piperidine-2,6-dione] | < 100 | 10 to 100 | 20 to 40 | 1 to 10 | > 80
COC1CN(Cc2cc(-c3ccc4c(c3)CN(C3CCC(=O)NC3=O)C4=O)nc3c2ccn3C)C1 (stereo not drawn) [Example 85, 3-(5-(4-((3-methoxyazetidin-1-yl)methyl)-1-methyl-1H-pyrrolo[2,3-b]pyridin-6-yl)-1-oxoisoindolin-2-yl) piperidine-2,6-dione] | 100 to 500 | 1 to 10 | 20 to 40 | 1 to 10 | > 80
CC(c1cc(-c2ccc3c(c2)CN(C2CCC(=O)NC2=O)C3=O)nc2c1ccn2C)N1CCCC1 (stereo not drawn) [Example 87, 3-(5-(1-methyl-4-(1-(pyrrolidin-1-yl)ethyl)-1H-pyrrolo[2,3-b]pyridin-6-yl)-1-oxoisoindolin-2-yl) piperidine-2,6-dione] | 100 to 500 | > 10000 | < 20 | 100 to 1000 | < 20
Cn1ccc2c(Cn3ccnc3)cc(-c3ccc4c(c3)CN(C3CCC(=O)NC3=O)C4=O)nc21 (stereo not drawn) [Example 88, 3-(5-(4-((1H-imidazol-1-yl)methyl)-1-methyl-1H-pyrrolo[2,3-b]pyridin-6-yl)-1-oxoisoindolin-2-yl) piperidine-2,6-dione] | 1000 to 5000 | > 10000 | < 20 | 10 to 100 | > 80
Cn1ccc2c(C(=O)N3CCCC3)cc(-c3ccc4c(c3)CN(C3CCC(=O)NC3=O)C4=O)nc21 (stereo not drawn) [Example 89, 3-(5-(1-methyl-4-(pyrrolidine-1-carbonyl)-1H-pyrrolo[2,3-b]pyridin-6-yl)-1-oxoisoindolin-2-yl) piperidine-2,6-dione] | 500 to 1000 | > 10000 | < 20 | 100 to 1000 | 20 to 40
Cn1ccc2c(CN3CCC(C(F)(F)F)CC3)cc(-c3ccc4c(c3)CN(C3CCC(=O)NC3=O)C4=O)nc21 (stereo not drawn) [Example 90, 3-(5-(1-methyl-4-((4-(trifluoromethyl)piperidin-1-yl)methyl)-1H-pyrrolo[2,3-b]pyridin-6-yl)-1-oxoisoindolin-2-yl) piperidine-2,6-dione] | 100 to 500 | 10 to 100 | 20 to 40 | 1 to 10 | > 80
Cn1ccc2c(CN3CC4(COC4)C3)cc(-c3ccc4c(c3)CN(C3CCC(=O)NC3=O)C4=O)nc21 (stereo not drawn) [Example 91, 3-(5-(4-((2-oxa-6-azaspiro[3.3]heptan-6-yl)methyl)-1-methyl-1H-pyrrolo[2,3-b]pyridin-6-yl)-1-oxoisoindolin-2-yl) piperidine-2,6-dione] | 500 to 1000 | 10 to 100 | 20 to 40 | 1 to 10 | > 80
